Results taken from ChEMBL document CHEMBL1139787, “Synthetic tyrosyl gallate derivatives as potent melanin formation inhibitors” (Bioorg Med Chem Lett, 2007).

Assays:
[1] = Cytotoxicity againt Melan-a cells by MTT assay; assay type: cell-based; settings: Mus musculus
[2] = DPPH radical scavenging activity after 30 mins; assay type: functional
[3] = target: Tyrosinase (Mus musculus) (UniProt P11344); assay: Inhibition of tyrosinase in Melan-a cells
[4] = Inhibition of melanin formation in Melan-a cells after 5 days; assay type: functional, cell-based; settings: 120 h

Sequence of Tyrosinase (Mus musculus) (P11344 whole entry, looked up): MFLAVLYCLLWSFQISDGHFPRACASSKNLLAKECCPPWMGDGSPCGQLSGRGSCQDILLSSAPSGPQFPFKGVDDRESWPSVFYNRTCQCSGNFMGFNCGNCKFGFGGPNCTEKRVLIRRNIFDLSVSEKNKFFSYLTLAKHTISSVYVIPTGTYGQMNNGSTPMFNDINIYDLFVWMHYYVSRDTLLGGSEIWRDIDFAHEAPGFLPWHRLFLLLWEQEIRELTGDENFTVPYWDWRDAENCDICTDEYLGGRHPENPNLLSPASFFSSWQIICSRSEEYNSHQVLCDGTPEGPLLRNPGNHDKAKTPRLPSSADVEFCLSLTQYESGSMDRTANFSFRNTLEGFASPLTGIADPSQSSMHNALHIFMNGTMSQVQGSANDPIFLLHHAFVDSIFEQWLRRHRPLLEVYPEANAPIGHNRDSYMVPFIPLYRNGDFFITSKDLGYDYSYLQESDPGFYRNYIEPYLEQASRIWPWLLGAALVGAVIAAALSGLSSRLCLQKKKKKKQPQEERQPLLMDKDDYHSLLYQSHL

Structure (SMILES)	IC50 [1]	IC50 [2]	IC50 [3]	IC50 [4]
O=C(OCCc1ccc(O)cc1)c1cc(O)c(O)c(O)c1	> 10 µM	7.52 µM	4.93 µM	
OC[C@H]1O[C@@H](Oc2ccc(O)cc2)[C@H](O)[C@@H](O)[C@@H]1O [ARBUTIN]	> 1500 µM			118 µM
O=C1O[C@H]([C@@H](O)CO)C(O)=C1O [ASCORBIC ACID]		13.6 µM		
Cc1c(C)c2c(c(C)c1O)CC[C@@](C)(CCCC(C)CCCC(C)CCCC(C)C)O2 (single isomer, unassigned) [ALPHA-TOCOPHEROL]		9.89 µM		
O=C(OCCc1cccc(O)c1)c1cc(O)c(O)c(O)c1	> 50 µM	7.78 µM	15.2 µM	8.94 µM
O=C(OCCc1ccccc1O)c1cc(O)c(O)c(O)c1	> 50 µM	8.31 µM	14.5 µM	13.7 µM
